Measurements published in ChEMBL document CHEMBL4402540, “Structure-Activity Relationship Studies of Small Molecule Modulators of the Staphylococcal Accessory Gene Regulator” (J Med Chem, 2020).
Where a SMILES comes first, the peptide text is derived from it. Bridges are numbered along the chain shown (N, C = ends). [ ]: non-standard residue; d: D form. The star is where a group is joined. 6FAM = O=C1OC2(c3ccc(O)cc3Oc3cc(O)ccc32)c2cc(C(=O)*)ccc21; Biotin = O=C1N[C@H]2[C@H](CS[C@H]2CCCCC(=O)*)N1; NMeF = CN[C@@H](Cc1ccccc1)C(=O)O; NMeL = CN[C@@H](CC(C)C)C(=O)O; NMeS = CN[C@@H](CO)C(=O)O; Pent4ynoyl = C#CCCC(=O)*; Dap = NC[C@H](N)C(=O)O; AEEA = NCCOCCOCC(=O)O; Aoc = NCCCCCCCC(=O)O; Ava = NCCCCC(=O)O; Mpa = O=C(O)CCS

Assays:
[1] = Inhibition of AgrC-1 in Staphylococcus aureus AH1677 incubated for 24 hrs by fluorescence assay
[2] = Inhibition of AgrC-2 in Staphylococcus aureus AH430 incubated for 24 hrs by fluorescence assay
[3] = Inhibition of AgrC-3 in Staphylococcus aureus AH1747 incubated for 24 hrs by fluorescence assay
[4] = Inhibition of AgrC-4 in Staphylococcus aureus AH1872 incubated for 24 hrs by fluorescence assay
[5] = Inhibition of AgrC-1 in Staphylococcus aureus
[6] = Inhibition of AgrC-2 in Staphylococcus aureus
[7] = Inhibition of AgrC-4 in Staphylococcus aureus
[8] = Inhibition of AgrC-2 in Staphylococcus aureus RN9372 incubated for 60 to 90 mins in presence of AIP agonist by beta-lactamase reporter gene assay
[9] = Inhibition of AgrC-2 in Staphylococcus aureus RN9372 incubated for 1 hr in presence of AIP agonist by beta-lactamase reporter gene assay
[10] = Inhibition of AgrC-1 in Staphylococcus aureus RN9222 incubated for 1 hr in presence of AIP agonist by beta-lactamase reporter gene assay
[11] = Inhibition of AgrC-1 Staphylococcus epidermidis AH3408 incubated for 24 hrs by fluorescence assay
[12] = target: T1, Chloramphenicol acetyltransferase (Staphylococcus epidermidis) (UniProt D2JCN2); assay: Activation of Chloramphenicol acetyltransferase activity in Staphylococcus epidermidis Tu3298 at 200 nM and measured every 15 sec for 20 mins (reference value: 12.5 U/mg)
T1 sequence (whole entry): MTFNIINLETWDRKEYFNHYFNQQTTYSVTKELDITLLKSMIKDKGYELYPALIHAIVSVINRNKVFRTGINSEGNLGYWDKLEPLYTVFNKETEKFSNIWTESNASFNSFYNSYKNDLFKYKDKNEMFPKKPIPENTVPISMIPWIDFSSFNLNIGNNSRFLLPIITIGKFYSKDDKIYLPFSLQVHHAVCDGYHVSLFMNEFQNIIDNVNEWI

| Molecule | IC50 [1] | IC50 [2] | IC50 [3] | IC50 [4] | also measured |
| --- | --- | --- | --- | --- | --- |
| O=C1COCCOCCNC(=O)[C@H](NC(=O)Cc2ccccc2)CSC(=O)[C@H](Cc2cccc(Cl)c2)NC(=O)[C@H](CC2CCCC2)N1 | 4.88 nM | 6.47 nM | 0.387 nM | 3.87 nM |  |
| CC(=O)N[C@H]1CSC(=O)[C@H](Cc2ccccc2)NC(=O)[C@H](Cc2ccccc2)NC(=O)CCCCCCCCNC1=O | 468 nM | 479 nM | 125 nM | 3490 nM |  |
| CC(=O)N[C@H]1CNC(=O)[C@H](Cc2ccccc2)NC(=O)[C@H](Cc2ccccc2)NC(=O)CCCCCCCCNC1=O | 4740 nM | 1340 nM | 2610 nM |  |  |
| CC[C@@H](C)[C@H](N)C(=O)N[C@H](CC(N)=O)C(=O)N(C)[C@@H]1CSC(=O)[C@@H](CC(C)C)N(C)C(=O)[C@@H](CC(C)C)NC(=O)CN(Cc2ccccc2)C(=O)[C@@H](CC(=O)O)NC1=O |  |  |  |  | IC50 [5]: 4.49 nM; IC50 [6]: 1.95 nM; IC50 [7]: 6.59 nM |
| O=C1COCCOCCNC(=O)[C@H](NC(=O)Cc2ccccc2)CSC(=O)[C@H](Cc2cccc(F)c2)NC(=O)[C@H](CC2CCCC2)N1 | 2.01 nM | 17.9 nM | 0.0918 nM | 4.75 nM |  |
| CC[C@@H](C)[C@H](N)C(=O)N[C@H](CC(N)=O)C(=O)N(C)[C@@H]1CSC(=O)[C@@H](CC(C)C)N(C)C(=O)[C@@H](CC(C)C)NC(=O)[C@@H](Cc2ccccc2)NC(=O)[C@@H](CC(=O)O)NC1=O |  |  |  |  | IC50 [5]: 137 nM; IC50 [6]: 134 nM; IC50 [7]: 106 nM |
| CC(=O)N[C@@H]1C/C=C\[C@H](Cc2ccccc2)NC(=O)[C@H](CC(C)C)NC(=O)[C@H](CO)NC(=O)[C@H](CO)NC1=O | > 10000 nM | > 10000 nM | > 10000 nM | > 10000 nM |  |
| CC[C@H](C)[C@H](NC(=O)c1ccc2c(c1)C1(OC2=O)c2ccc(O)cc2Oc2cc(O)ccc21)C(=O)N[C@@H](CC(N)=O)C(=O)N[C@H]1CSC(=O)[C@H](CC(C)C)NC(=O)[C@H](CC(C)C)NC(=O)[C@H](Cc2ccccc2)NC(=O)[C@H](C)NC1=O (6FAM-INCAFLL; thioester 3-C) |  |  |  |  | IC50 [8]: 22 nM |
| CC(=O)N[C@H]1CSC(=O)[C@H](Cc2ccccc2)NC(=O)[C@H](CC(C)C)NC(=O)[C@H](CO)NC(=O)CNC1=O (Ac-CGSLF; thioester 1-C) |  |  |  |  | IC50 [9]: 1160 nM; IC50 [10]: 189 nM |
| CC(=O)N[C@H]1CSC(=O)[C@H](Cc2ccccc2)NC(=O)[C@H](CC(C)C)NC(=O)[C@H](CO)NC(=O)[C@H](CO)NC1=O (Ac-CSSLF; thioester 1-C) | 101 nM | 97 nM | 9.3 nM | 140 nM |  |
| CC(=O)N[C@H]1CSC(=O)[C@H](Cc2ccccc2)N(C)C(=O)[C@H](CC(C)C)NC(=O)[C@H](CO)NC(=O)[C@H](CO)NC1=O (Ac-CSSL[NMeF]; thioester 1-C) |  |  |  |  | IC50 [9]: > 30000 nM; IC50 [10]: > 30000 nM |
| CC(=O)N[C@H]1CSC(=O)[C@H](Cc2ccccc2)NC(=O)[C@H](CC(C)C)N(C)C(=O)[C@H](CO)NC(=O)[C@H](CO)NC1=O (Ac-CSS[NMeL]F; thioester 1-C) |  |  |  |  | IC50 [9]: > 30000 nM; IC50 [10]: > 30000 nM |
| CC(=O)N[C@H]1CSC(=O)[C@H](Cc2ccccc2)NC(=O)[C@H](CC(C)C)NC(=O)[C@H](CO)N(C)C(=O)[C@H](CO)NC1=O (Ac-CS[NMeS]LF; thioester 1-C) |  |  |  |  | IC50 [9]: 1050 nM; IC50 [10]: 319 nM |
| CC(=O)N[C@H]1CSC(=O)[C@H](Cc2ccccc2)NC(=O)[C@H](Cc2ccccc2)NC(=O)COCCOCCNC1=O (Ac-C[AEEA]FF; thioester 1-C) | 181 nM | 583 nM | 332 nM | 5940 nM |  |
| CC(=O)N[C@H]1CSC(=O)[C@H](Cc2ccccc2)NC(=O)[C@H](Cc2ccccc2)NC(=O)CCCCCCCNC1=O (Ac-C[Aoc]FF; thioester 1-C) | 340 nM | 495 nM | 34.8 nM | 985 nM |  |
| CC(=O)N[C@H]1CSC(=O)[C@H](Cc2ccccc2)N(C)C(=O)[C@H](CC(C)C)NC(=O)CCCCNC1=O (Ac-C[Ava]L[NMeF]; thioester 1-C) |  |  |  |  | IC50 [9]: 50700 nM; IC50 [10]: 1140 nM |
| CC(=O)N[C@H]1CSC(=O)[C@H](Cc2ccccc2)NC(=O)[C@H](CC(C)C)NC(=O)[C@H](CO)NC(=O)[C@H](CO)N(C)C1=O (Ac-C[NMeS]SLF; thioester 1-C) |  |  |  |  | IC50 [9]: 7880 nM; IC50 [10]: 639 nM |

| Molecule | IC50 [1] | IC50 [2] | IC50 [3] | IC50 [4] | also measured |
| --- | --- | --- | --- | --- | --- |
| CC(=O)N[C@H]1CNC(=O)[C@H](Cc2ccccc2)N(C)C(=O)[C@H](CC(C)C)NC(=O)[C@H](CO)NC(=O)[C@H](CO)NC1=O (Ac-[Dap]SSL[NMeF]; lactam 1-C) |  |  |  |  | IC50 [9]: 167000 nM; IC50 [10]: 1390 nM |
| CC(=O)N[C@H]1CNC(=O)[C@H](Cc2ccccc2)NC(=O)[C@H](Cc2ccccc2)NC(=O)COCCOCCNC1=O (Ac-[Dap][AEEA]FF; lactam 1-C) | > 10000 nM | > 10000 nM | > 10000 nM | > 10000 nM |  |
| CC(=O)N[C@H]1CNC(=O)[C@H](Cc2ccccc2)NC(=O)[C@H](Cc2ccccc2)NC(=O)CCCCCCCNC1=O (Ac-[Dap][Aoc]FF; lactam 1-C) | 3940 nM | 2200 nM | 573 nM |  |  |
| CC[C@H](C)[C@@H]1NC(=O)[C@H](Cc2ccccc2)NC(=O)[C@H](CC(=O)O)NC(=O)[C@@H](NC(=O)[C@@H](NC(=O)[C@H](CO)NC(=O)[C@H](Cc2ccc(O)cc2)NC(=O)CCCC[C@@H]2SC[C@@H]3NC(=O)N[C@@H]32)[C@@H](C)O)CSC(=O)[C@H](CCSC)NC1=O (Biotin-YSTCDFIM; thioester 4-C) |  |  |  |  | IC50 [8]: 40 nM |
| C[C@H](N)C(=O)N[C@@H](CO)C(=O)N[C@@H](C)C(=O)N[C@H]1CSC(=O)[C@H](Cc2ccccc2)NC(=O)[C@H](Cc2ccc(O)cc2)NC(=O)[C@H](C)NC(=O)[C@H](C)NC1=O (H-ASACAAYF; thioester 4-C) |  |  |  |  | IC50 [11]: 2.84 nM |
| C[C@H](N)C(=O)N[C@@H](CO)C(=O)N[C@@H](C)C(=O)N[C@H]1CSC(=O)[C@H](Cc2ccccc2)NC(=O)[C@H](Cc2ccc(O)cc2)NC(=O)[C@H](C)NC(=O)[C@H](CO)NC1=O (H-ASACSAYF; thioester 4-C) |  |  |  |  | IC50 [11]: 2.08 nM |
| CC(C)[C@H](NC(=O)[C@H](CO)NC(=O)[C@H](CC(=O)O)NC(=O)CN)C(=O)N[C@H]1CSC(=O)[C@H](Cc2ccccc2)NC(=O)[C@H](Cc2ccc(O)cc2)NC(=O)[C@H](CO)NC(=O)[C@H](C)NC1=O (H-GDSVCASYF; thioester 5-C) |  |  |  |  | Activity [12]: 15.6 U/mg |
| CC[C@H](C)[C@H](N)C(=O)N[C@@H](CC(N)=O)C(=O)N[C@H]1CNC(=O)[C@H](CC(C)C)NC(=O)[C@H](CC(C)C)NC(=O)[C@H](Cc2ccccc2)NC(=O)[C@H](CC(=O)O)NC1=O (H-IN[Dap]DFLL; lactam 3-C) | > 1000 nM | > 1000 nM | 75.2 nM | 299 nM |  |
| CC(C)C[C@@H]1NC(=O)[C@H](Cc2ccc(O)cc2)NC(=O)[C@H](CO)NC(=O)[C@H](C)NC(=O)[C@@H](NC(=O)[C@@H]2CCCN2C(=O)[C@H](CC(N)=O)NC(=O)[C@H](Cc2ccc(O)cc2)NC(=O)[C@H](CCCCN)NC(=O)[C@H](C)NC(=O)[C@H](C)NC(=O)[C@@H](N)CC(N)=O)CSC1=O (H-NAAKYNPCASYL; thioester 8-C) |  |  |  |  | IC50 [11]: 34.3 nM |
| CC(C)C[C@@H]1NC(=O)[C@H](Cc2ccc(O)cc2)NC(=O)[C@H](CC(N)=O)NC(=O)[C@H](CO)NC(=O)[C@@H](NC(=O)[C@@H]2CCCN2C(=O)[C@H](CC(N)=O)NC(=O)[C@H](Cc2ccc(O)cc2)NC(=O)[C@H](CCCCN)NC(=O)[C@H](CO)NC(=O)[C@H](C)NC(=O)[C@@H](N)CC(N)=O)CSC1=O (H-NASKYNPCSNYL; thioester 8-C) |  |  |  |  | IC50 [11]: 9.64 nM |
| CC(C)[C@H](NC(=O)[C@@H](N)CO)C(=O)N[C@H]1CSC(=O)[C@H](Cc2ccccc2)NC(=O)[C@H](Cc2ccc(O)cc2)NC(=O)[C@H](CO)NC(=O)[C@H](C)NC1=O (H-SVCASYF; thioester 3-C) |  |  |  |  | Activity [12]: 16.1 U/mg |
| CC(C)C[C@@H]1NC(=O)[C@H](CC(C)C)NC(=O)[C@H](Cc2ccccc2)NC(=O)[C@H](C)NC(=O)[C@@H](N)CNC1=O (H-[Dap]AFLL; lactam 1-C) | 1.5 nM | 13.9 nM | 0.216 nM | 0.189 nM |  |
| C#CCCC(=O)N[C@H](C(=O)N[C@@H](CC(N)=O)C(=O)N[C@H]1CSC(=O)[C@H](CC(C)C)NC(=O)[C@H](CC(C)C)NC(=O)[C@H](Cc2ccccc2)NC(=O)[C@H](C)NC1=O)[C@@H](C)CC (Pent4ynoyl-INCAFLL; thioester 3-C) | 1000 nM | > 1000 nM | > 1000 nM | > 1000 nM |  |
| CC(C)C[C@@H]1NC(=O)[C@H](CO)NC(=O)[C@H](CO)NC(=O)CCSC(=O)[C@H](Cc2ccccc2)N(C)C1=O ([Mpa]SSL[NMeF]; thioester 1-C) | 0.257 nM | 0.9 nM | 0.329 nM | 0.0957 nM | IC50 [9]: 47300 nM; IC50 [10]: 1680 nM |
| H-DSVCASYF-OH |  |  |  |  | Activity [12]: 9.8 U/mg |
| H-GDSVCASYF-OH |  |  |  |  | Activity [12]: 11.2 U/mg |
| H-SVCASYF-OH |  |  |  |  | Activity [12]: 8.9 U/mg |
